From PMC6858350, “A common mechanism allows selective targeting of GluN2B subunit-containing N-methyl-D-aspartate receptors” (Communications Biology, 2019)
Where two headings read alike, the source gives them in different places.

Experiments:
[1] = molecular target: T1, GluN1-1a S132A/GluN2B WT (Rattus norvegicus, UniProt P35439+Q00960, S132A)
[2] = molecular target: T2, GluN1-1a L135N/GluN2B WT (Rattus norvegicus, UniProt P35439+Q00960, L135N); assay: cell-based
[3] = molecular target: T3, GluN1-1a WT/GluN2B Q110A (Rattus norvegicus, UniProt P35439+Q00960, Q110A); assay: cell-based
[4] = molecular target: T4, GluN1-1a WT/GluN2B F176Y (Rattus norvegicus, UniProt P35439+Q00960, F176Y)
[5] = molecular target: T5, GluN1-1a WT/GluN2B F176A (Rattus norvegicus, UniProt P35439+Q00960, F176A)
[6] = molecular target: T5, GluN1-1a WT/GluN2B F176A; assay: cell-based
[7] = molecular target: T3, GluN1-1a WT/GluN2B Q110A
[8] = molecular target: T6, GluN1-1a/GluN2C NMDAR (Rattus norvegicus, UniProt P35439+Q00961); settings: from inhibition at 10 µM (GluN2C, GluN2D) versus IC50 at GluN2B
[9] = molecular target: T4, GluN1-1a WT/GluN2B F176Y; assay: cell-based
[10] = molecular target: T1, GluN1-1a S132A/GluN2B WT; assay: cell-based
[11] = molecular target: GluN1-1a/GluN2B NMDAR (wildtype) (Rattus norvegicus, UniProt P35439+Q00960); format: cell-based; settings: for p (slope of the dose-response curve) / A2 ± SE (maximum inhibition from dose-response curve): −70 mV; for A2 ± SE (maximum inhibition from dose-response curve): flexible A2
[12] = molecular target: T7, GluN1-1a WT/GluN2B I111A (Rattus norvegicus, UniProt P35439+Q00960, I111A)
[13] = molecular target: GluN1-1a/GluN2A NMDAR (Rattus norvegicus, UniProt P35439+Q00959); assay: cell-based; settings: read-out: ion current inhibition % ± SEM, GluN2A
[14] = molecular target: T8, GluN1-1a Y109S/GluN2B WT (Rattus norvegicus, UniProt P35439+Q00960, Y109S)
[15] = molecular target: T9, GluN1-1a WT/GluN2B F114A (Rattus norvegicus, UniProt P35439+Q00960, F114A); assay: cell-based
[16] = molecular target: T8, GluN1-1a Y109S/GluN2B WT; assay: cell-based
[17] = molecular target: T7, GluN1-1a WT/GluN2B I111A; assay: cell-based
[18] = molecular target: T10, GluN1-1a WT/GluN2B E236A (Rattus norvegicus, UniProt P35439+Q00960, E236A); assay: cell-based
[19] = molecular target: T10, GluN1-1a WT/GluN2B E236A
[20] = molecular target: T2, GluN1-1a L135N/GluN2B WT
[21] = molecular target: GluN1-1a/GluN2D NMDAR (Rattus norvegicus, UniProt P35439+Q62645); assay: cell-based; settings: read-out: ion current inhibition % ± SEM, GluN2D
[22] = molecular target: T6, GluN1-1a/GluN2C NMDAR; assay: cell-based; settings: read-out: ion current inhibition % ± SEM, GluN2C
[23] = molecular target: T11, GluN1-1a F113S/GluN2B WT (Rattus norvegicus, UniProt P35439+Q00960, F113S)
[24] = molecular target: T9, GluN1-1a WT/GluN2B F114A
[25] = molecular target: T11, GluN1-1a F113S/GluN2B WT; assay: cell-based
[26] = system: more than 100 relevant receptors, transporters and enzymes including adrenergic (α1), dopaminergic (D1, D2), opioid (κ, μ, δ) and serotonergic receptors …; set-up: method as in earlier work; settings: concentration of 1 - 3 µM; ref 2 (Tewes et al., Bioorg. Med. Chem. 2010); cited from earlier work

T4 sequence (Q00960 27-1482 F176Y, other chains not shown): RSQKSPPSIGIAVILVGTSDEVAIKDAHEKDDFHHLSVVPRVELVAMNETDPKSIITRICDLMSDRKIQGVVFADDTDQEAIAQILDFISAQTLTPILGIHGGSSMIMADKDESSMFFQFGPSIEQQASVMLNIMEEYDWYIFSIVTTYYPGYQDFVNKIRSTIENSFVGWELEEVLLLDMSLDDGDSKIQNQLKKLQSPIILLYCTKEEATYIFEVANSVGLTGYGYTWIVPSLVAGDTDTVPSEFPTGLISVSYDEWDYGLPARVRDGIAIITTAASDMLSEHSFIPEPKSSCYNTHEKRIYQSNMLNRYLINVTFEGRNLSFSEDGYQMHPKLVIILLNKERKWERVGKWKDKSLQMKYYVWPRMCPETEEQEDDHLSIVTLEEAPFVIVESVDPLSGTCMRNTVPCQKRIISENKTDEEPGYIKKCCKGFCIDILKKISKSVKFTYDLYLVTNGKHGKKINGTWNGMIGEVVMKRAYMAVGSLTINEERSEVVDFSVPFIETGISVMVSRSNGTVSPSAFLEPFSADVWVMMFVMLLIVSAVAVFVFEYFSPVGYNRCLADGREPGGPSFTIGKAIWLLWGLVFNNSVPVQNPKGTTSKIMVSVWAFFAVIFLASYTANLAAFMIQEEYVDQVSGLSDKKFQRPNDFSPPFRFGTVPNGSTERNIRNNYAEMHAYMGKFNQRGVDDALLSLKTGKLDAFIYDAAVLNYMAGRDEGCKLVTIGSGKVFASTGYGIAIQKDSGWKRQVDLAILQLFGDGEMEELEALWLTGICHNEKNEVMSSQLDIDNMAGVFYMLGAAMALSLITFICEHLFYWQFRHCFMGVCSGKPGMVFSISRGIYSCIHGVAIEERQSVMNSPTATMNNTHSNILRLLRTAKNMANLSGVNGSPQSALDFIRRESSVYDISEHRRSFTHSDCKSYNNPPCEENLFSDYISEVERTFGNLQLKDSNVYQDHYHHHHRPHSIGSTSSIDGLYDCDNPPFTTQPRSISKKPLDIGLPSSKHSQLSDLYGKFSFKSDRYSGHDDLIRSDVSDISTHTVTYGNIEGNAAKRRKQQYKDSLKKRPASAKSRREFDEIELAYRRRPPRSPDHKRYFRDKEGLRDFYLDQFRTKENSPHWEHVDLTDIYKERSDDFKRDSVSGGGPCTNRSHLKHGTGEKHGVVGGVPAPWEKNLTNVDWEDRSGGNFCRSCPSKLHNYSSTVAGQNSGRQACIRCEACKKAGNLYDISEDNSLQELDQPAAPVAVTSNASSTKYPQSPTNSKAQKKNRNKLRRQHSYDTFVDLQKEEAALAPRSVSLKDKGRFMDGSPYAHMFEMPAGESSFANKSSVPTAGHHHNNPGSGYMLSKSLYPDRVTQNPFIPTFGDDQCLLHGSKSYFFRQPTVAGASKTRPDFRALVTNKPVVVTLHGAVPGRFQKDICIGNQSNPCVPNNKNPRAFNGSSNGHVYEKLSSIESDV
T3 sequence (Q00960 27-1482 Q110A, other chains not shown): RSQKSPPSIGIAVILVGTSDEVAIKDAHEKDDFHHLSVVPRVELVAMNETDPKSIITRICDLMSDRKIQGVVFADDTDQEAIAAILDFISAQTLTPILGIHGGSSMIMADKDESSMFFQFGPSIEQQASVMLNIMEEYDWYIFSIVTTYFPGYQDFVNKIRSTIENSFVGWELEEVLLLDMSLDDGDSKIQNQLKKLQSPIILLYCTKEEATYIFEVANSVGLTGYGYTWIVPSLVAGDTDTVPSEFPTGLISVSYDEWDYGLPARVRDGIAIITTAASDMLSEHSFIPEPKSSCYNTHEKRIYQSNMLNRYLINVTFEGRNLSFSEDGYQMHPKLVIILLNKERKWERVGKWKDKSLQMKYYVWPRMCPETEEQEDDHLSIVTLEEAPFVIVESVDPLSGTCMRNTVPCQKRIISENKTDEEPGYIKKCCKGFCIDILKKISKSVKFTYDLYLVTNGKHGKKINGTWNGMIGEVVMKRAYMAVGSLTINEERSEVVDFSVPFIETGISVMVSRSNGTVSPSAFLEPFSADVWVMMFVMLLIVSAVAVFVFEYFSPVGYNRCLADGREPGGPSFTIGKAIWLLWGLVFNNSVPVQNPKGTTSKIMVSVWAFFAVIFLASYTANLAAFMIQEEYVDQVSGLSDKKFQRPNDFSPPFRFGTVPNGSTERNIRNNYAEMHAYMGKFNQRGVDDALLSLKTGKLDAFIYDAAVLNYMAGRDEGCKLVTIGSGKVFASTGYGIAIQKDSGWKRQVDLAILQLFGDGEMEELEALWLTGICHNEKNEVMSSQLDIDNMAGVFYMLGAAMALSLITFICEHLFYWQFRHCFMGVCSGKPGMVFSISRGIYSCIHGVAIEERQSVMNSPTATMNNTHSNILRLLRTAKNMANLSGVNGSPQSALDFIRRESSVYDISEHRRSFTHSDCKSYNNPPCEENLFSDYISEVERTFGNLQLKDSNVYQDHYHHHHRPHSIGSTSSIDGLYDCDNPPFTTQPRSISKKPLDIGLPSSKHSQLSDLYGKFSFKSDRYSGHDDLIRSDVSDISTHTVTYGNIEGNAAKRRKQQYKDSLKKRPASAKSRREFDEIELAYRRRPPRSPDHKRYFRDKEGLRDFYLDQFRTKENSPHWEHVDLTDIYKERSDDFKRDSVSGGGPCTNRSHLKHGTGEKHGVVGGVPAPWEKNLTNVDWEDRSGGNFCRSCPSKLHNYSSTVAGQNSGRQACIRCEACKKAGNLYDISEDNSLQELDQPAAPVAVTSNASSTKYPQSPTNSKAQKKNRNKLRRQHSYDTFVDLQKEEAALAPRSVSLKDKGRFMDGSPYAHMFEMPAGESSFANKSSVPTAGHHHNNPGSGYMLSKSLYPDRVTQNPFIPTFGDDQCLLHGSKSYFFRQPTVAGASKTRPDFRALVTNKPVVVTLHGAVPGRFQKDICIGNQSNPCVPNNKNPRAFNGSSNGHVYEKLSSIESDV
T7 sequence (Q00960 27-1482 I111A, other chains not shown): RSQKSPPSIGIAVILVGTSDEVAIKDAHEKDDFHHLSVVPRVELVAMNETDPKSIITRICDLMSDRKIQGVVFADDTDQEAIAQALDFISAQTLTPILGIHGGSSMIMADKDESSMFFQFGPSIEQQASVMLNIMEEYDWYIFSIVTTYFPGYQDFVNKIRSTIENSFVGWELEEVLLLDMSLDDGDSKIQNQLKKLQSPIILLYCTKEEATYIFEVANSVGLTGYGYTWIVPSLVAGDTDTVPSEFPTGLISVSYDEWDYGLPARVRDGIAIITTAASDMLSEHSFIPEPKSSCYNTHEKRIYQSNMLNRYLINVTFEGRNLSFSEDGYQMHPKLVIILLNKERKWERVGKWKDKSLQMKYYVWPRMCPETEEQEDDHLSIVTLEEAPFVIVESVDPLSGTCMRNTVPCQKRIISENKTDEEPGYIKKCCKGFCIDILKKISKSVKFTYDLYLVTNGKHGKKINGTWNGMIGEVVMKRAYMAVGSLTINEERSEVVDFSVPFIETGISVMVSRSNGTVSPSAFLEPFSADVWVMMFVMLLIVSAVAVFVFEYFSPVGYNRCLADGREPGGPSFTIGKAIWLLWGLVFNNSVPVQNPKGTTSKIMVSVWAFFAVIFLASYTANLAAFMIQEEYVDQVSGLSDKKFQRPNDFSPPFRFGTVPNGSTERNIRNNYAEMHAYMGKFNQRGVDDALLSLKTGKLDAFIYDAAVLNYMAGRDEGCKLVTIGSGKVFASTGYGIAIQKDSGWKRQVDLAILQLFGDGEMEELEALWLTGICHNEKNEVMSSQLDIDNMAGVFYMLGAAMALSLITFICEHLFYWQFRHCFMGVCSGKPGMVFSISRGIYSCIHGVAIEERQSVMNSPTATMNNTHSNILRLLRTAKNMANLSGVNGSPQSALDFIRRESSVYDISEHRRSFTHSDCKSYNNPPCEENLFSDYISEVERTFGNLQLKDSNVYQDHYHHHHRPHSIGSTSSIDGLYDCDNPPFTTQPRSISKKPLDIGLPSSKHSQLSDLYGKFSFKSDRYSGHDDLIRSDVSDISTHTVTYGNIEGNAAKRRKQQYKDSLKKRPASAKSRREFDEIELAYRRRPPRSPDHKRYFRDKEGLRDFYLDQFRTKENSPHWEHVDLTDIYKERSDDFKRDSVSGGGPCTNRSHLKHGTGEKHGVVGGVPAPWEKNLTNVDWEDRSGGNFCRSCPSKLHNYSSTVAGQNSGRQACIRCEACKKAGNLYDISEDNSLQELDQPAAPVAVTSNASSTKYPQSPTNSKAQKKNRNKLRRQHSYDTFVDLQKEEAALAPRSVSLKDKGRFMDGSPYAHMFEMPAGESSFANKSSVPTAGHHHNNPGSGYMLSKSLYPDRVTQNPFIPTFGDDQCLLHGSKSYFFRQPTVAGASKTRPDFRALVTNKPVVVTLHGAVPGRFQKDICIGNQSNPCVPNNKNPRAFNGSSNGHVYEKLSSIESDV

C[C@@H]1[C@H](O)c2ccc(O)cc2CCN1CCCCc1ccccc1 [compound 2]
p (slope) ([1]; GluN1-1a S132A): 0.78
A2 ± SE ([1]; GluN1-1a S132A, flexible A2): 100 ± 3%
IC50 shift factor ([1]; mutant IC50 / wildtype IC50, GluN1-1a S132A): 4.3
IC50 [2]: 0.835 ± 0.184 µM
IC50 [3]: 0.13 ± 0.006 µM
p (slope) ([4]; GluN2B F176Y): 1.00
A2, fixed-to-wildtype (*) ([4]; GluN2B F176Y, maximum inhibition fixed to wildtype value): 97%
IC50 shift factor ([4]; mutant IC50 / wildtype IC50, GluN2B F176Y): 0.9
p (slope) ([5]; GluN2B F176A): 0.94
A2, fixed-to-wildtype (*) ([5]; GluN2B F176A, maximum inhibition fixed to wildtype value): 97%
IC50 shift factor ([5]; mutant IC50 / wildtype IC50, GluN2B F176A): 19.9
IC50 [6]: 1.81 ± 0.127 µM
p (slope) ([7]; GluN2B Q110A): 1.79
A2 ± SE ([7]; GluN2B Q110A, flexible A2): 95 ± 1%
IC50 shift factor ([7]; mutant IC50 / wildtype IC50, GluN2B Q110A): 1.4
lower activity at GluN2C and GluN2D than at GluN2B subunit-containing NMDARs [8]: at least 100 fold
IC50 [9]: 0.084 ± 0.009 µM
IC50 [10]: 0.387 ± 0.057 µM
IC50 [11]: 0.091 ± 0.007 µM
p (slope of the dose-response curve) ([11]; TEVC, wildtype): 1.08
A2 ± SE (maximum inhibition from dose-response curve) ([11]; TEVC, wildtype): 97 ± 2%
inhibition at 10 µM ([11]; read-out: ion current inhibition % ± SEM, GluN2B): 95 ± 1%
p (slope) ([12]; GluN2B I111A): 0.86
A2 ± SE ([12]; GluN2B I111A, flexible A2): 96 ± 4%
IC50 shift factor ([12]; mutant IC50 / wildtype IC50, GluN2B I111A): 4.2
inhibition at 10 µM [13]: 15 ± 5%
p (slope) ([14]; GluN1-1a Y109S): 0.86
A2 ± SE ([14]; GluN1-1a Y109S, flexible A2): 96 ± 2%
IC50 shift factor ([14]; mutant IC50 / wildtype IC50, GluN1-1a Y109S): 1.5
IC50 [15]: 0.667 ± 0.09 µM
IC50 [16]: 0.14 ± 0.019 µM
IC50 [17]: 0.38 ± 0.082 µM
IC50 [18]: 0.108 ± 0.016 µM
p (slope) ([19]; GluN2B E236A): 1.09
A2 ± SE ([19]; GluN2B E236A, flexible A2): 95 ± 3%
IC50 shift factor ([19]; mutant IC50 / wildtype IC50, GluN2B E236A): 1.2
p (slope) ([20]; GluN1-1a L135N): 0.72
A2 ± SE ([20]; GluN1-1a L135N, flexible A2): 100 ± 5%
IC50 shift factor ([20]; mutant IC50 / wildtype IC50, GluN1-1a L135N): 9.2
inhibition at 10 µM [21]: 55 ± 2%
inhibition at 10 µM [22]: 56 ± 2%
p (slope) ([23]; GluN1-1a F113S): 0.57
A2 ± SE ([23]; GluN1-1a F113S, flexible A2): 100 ± 3%
IC50 shift factor ([23]; mutant IC50 / wildtype IC50, GluN1-1a F113S): 0.8
p (slope) ([24]; GluN2B F114A): 1.03
A2, fixed-to-wildtype (*) ([24]; GluN2B F114A, maximum inhibition fixed to wildtype value): 97%
IC50 shift factor ([24]; mutant IC50 / wildtype IC50, GluN2B F114A): 7.3
IC50 [25]: 0.076 ± 0.017 µM

Oc1ccc2c(c1)CCN(CCCCc1ccccc1)CC2O (racemic) [compound rac-1]
IC50 ([11]; TEVC, holding potential −70 mV, 10 µM glycine and 10 µM (S)-glutamate, wildtype, read-out: IC50 ± SE): 0.094 ± 0.008 µM
p (slope of the dose-response curve) ([11]; TEVC, wildtype): 1.25
A2 ± SE (maximum inhibition from dose-response curve) ([11]; TEVC, wildtype): 93 ± 2%
competition with the employed radioligands [26]: did not compete
